From the supplement of paper PMC11061612

Key:
Assay in all cases: Bliss excess, mean over the matrix (fraction); higher = more synergy
[1] = tested on: HuH-7 (Hepatocellular Carcinoma)
Summary of the method: (§1)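 Cell lines grown in DMEM/F12 or RPMI with 10% FBS were plated in 1536-well plates and held 24 hours at 37°C, 5% CO2 before 72 hours of exposure to two-drug dose matrices, with DMSO typically at 0.2%. CellTiter-Glo 2.0 luminescence gave viability, which was converted to inhibition. Vehicle wells were set to 0 and blank wells to 1. Combination Emax is the second-highest inhibition in the matrix, and Bliss excess is the observed combination effect minus the expected EA + EB − EA·EB, where EA and EB are the single-agent effects.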

[2] = tested on: LNZTA3WT4 (Low Grade Glioma)
Summary of the method: as §1

[3] = tested on: NUGC-4 (Gastric Carcinoma)
Summary of the method: as §1

[4] = tested on: KMRC-20 (Kidney Carcinoma)
Summary of the method: as §1

[5] = tested on: HeLa (Cervical Carcinoma)
Summary of the method: as §1

[6] = tested on: HH (T-Cell Non-Hodgkin's Lymphoma)
Summary of the method: as §1

[7] = tested on: WSU-NHL (B-Cell Non-Hodgkin's Lymphoma)
Summary of the method: as §1

[8] = tested on: NCI-H2722 (Mesothelioma)
Summary of the method: as §1

[9] = tested on: LOXIMVI (Melanoma)
Summary of the method: as §1

[10] = tested on: LCLC-97TM1 (Non-Small Cell Lung Carcinoma)
Summary of the method: as §1

[11] = tested on: HuCCT1 (Biliary Tract Carcinoma)
Summary of the method: as §1

[12] = tested on: TGBC1TKB (Biliary Tract Carcinoma)
Summary of the method: as §1

[13] = tested on: L-428 (Hodgkin's Lymphoma)
Summary of the method: as §1

[14] = tested on: BPH-1 (Non-Cancerous)
Summary of the method: as §1

[15] = tested on: Hs-746T (Gastric Carcinoma)
Summary of the method: as §1

[16] = tested on: OVCAR-5 (Ovarian Carcinoma)
Summary of the method: as §1

[17] = tested on: FTC-133 (Thyroid Gland Carcinoma)
Summary of the method: as §1

[18] = tested on: SAS (Oral Cavity Carcinoma)
Summary of the method: as §1

[19] = tested on: BE2-M17 (Neuroblastoma)
Summary of the method: as §1

[20] = tested on: ALL-PO (B-Lymphoblastic Leukemia)
Summary of the method: as §1

Compound	Bliss excess [1]	Bliss excess [2]	Bliss excess [3]	Bliss excess [4]	Bliss excess [5]	Bliss excess [6]	Bliss excess [7]	Bliss excess [8]	Bliss excess [9]	Bliss excess [10]	Bliss excess [11]	Bliss excess [12]	Bliss excess [13]	Bliss excess [14]	Bliss excess [15]	Bliss excess [16]	Bliss excess [17]	Bliss excess [18]	Bliss excess [19]	Bliss excess [20]
COc1cccc2c1C(=O)c1c(O)c3c(c(O)c1C2=O)C[C@@](O)(C(=O)CO)C[C@@H]3O[C@H]1C[C@H](N)[C@H](O)[C@H](C)O1 [Doxorubicin] + Cc1cc2ncnn2cc1Nc1ncc2c(n1)n(C1CCOCC1)c(=O)n2C [AZD7648] (first compound max 1 µM, 7x7, partner max 10 µM)	-0.0513	0.016	0.0402	0.046	0.0511	-0.0305	0.0404	0.0336	0.0582	0.0332	-0.0073	-0.0247	0.0276	0.0736	0.0464	-0.0058	0.0917	0.0996	0.0514	0.143
CS(=O)(=O)CCNCc1ccc(-c2ccc3ncnc(Nc4ccc(OCc5cccc(F)c5)c(Cl)c4)c3c2)o1 [Lapatinib] + C[C@@H](Oc1cc(-c2cnn(C3CCNCC3)c2)cnc1N)c1c(Cl)ccc(F)c1Cl [Crizotinib] (first compound max 10 µM, 7x7, partner max 10 µM)	0.0309	-0.0665	0.0496	-0.116	-0.0031	-0.0405	-0.0515	-0.0713	-0.0505	-0.0093	-0.068	-0.0061	-0.0032	-0.0078	0.0079	-0.0818	-0.0012	-0.0346	-0.0652	0.035
CC(=O)c1c(C)c2cnc(Nc3ccc(N4CCNCC4)cn3)nc2n(C2CCCC2)c1=O [Palbociclib] + CC1(C)CCC(CN2CCN(c3ccc(C(=O)NS(=O)(=O)c4ccc(NCC5CCOCC5)c([N+](=O)[O-])c4)c(Oc4cnc5[nH]ccc5c4)c3)CC2)=C(c2ccc(Cl)cc2)C1 [Venetoclax] (first compound max 10 µM, 7x7, partner max 1 µM)	-0.0402	-0.0032	-0.0246	-0.03	-0.0473	-0.0384	-0.0137	-0.0485	-0.0045	-0.0231	-0.0611	-0.0385	0.0037	-0.0556	-0.0117	-0.0018	-0.0481	0.014	0.0218	0.169
CC(=O)c1c(C)c2cnc(Nc3ccc(N4CCNCC4)cn3)nc2n(C2CCCC2)c1=O [Palbociclib] + Cc1c2c(nn1C)CSCc1cc(n(C)n1)CSc1cc(c3ccccc3c1)OCCCc1c(C(=O)O)n(C)c3c-2c(Cl)ccc13 [AZD5991] (first compound max 10 µM, 7x7, partner max 1 µM)	-0.011	0.0064	-0.0486	-0.0782	-0.0225	-0.131	-0.0269	-0.0649	-0.0325	-0.0149	-0.0461	-0.0082	-0.0554	-0.0476	-0.0293	-0.0406	-0.0515	-0.0318	0.0096	-0.0065
CC(=O)c1c(C)c2cnc(Nc3ccc(N4CCNCC4)cn3)nc2n(C2CCCC2)c1=O [Palbociclib] + Cn1cnc2c(F)c(Nc3ccc(Br)cc3Cl)c(C(=O)NOCCO)cc21 [Selumetinib] (first compound max 10 µM, 7x7, partner max 10 µM)	-0.0584	-0.0459	-0.0292	-0.0534	-0.0499	-0.0471	0.107	-0.069	0.0724	0.0728	0.0282	-0.0251	-0.0083	-0.0755	-0.0475	-0.0041	-0.0403	-0.0084	-0.0339	0.0243
COc1cccc(OCCCN)c1-c1cc(Nc2cnc(C#N)cn2)n[nH]1 [Prexasertib] + C=CCn1c(=O)c2cnc(Nc3ccc(N4CCN(C)CC4)cc3)nc2n1-c1cccc(C(C)(C)O)n1 [AZD1775] (first compound max 1 µM, partner max 1 µM)	0.0469	0.133	0.0569	-0.0104	0.0651	0.0872	0.0303	0.0156	0.0467	0.057	0.0261	0.0068	0.0109	0.115	-0.0572	0.044	-0.0182	0.0405	0.098	0.0744
COc1cccc(OCCCN)c1-c1cc(Nc2cnc(C#N)cn2)n[nH]1 [Prexasertib] + CCc1c2c(nc3ccc(O)cc13)-c1cc3c(c(=O)n1C2)COC(=O)[C@]3(O)CC [SN-38] (first compound max 1 µM, 7x7, partner max 0.3 µM)	0.122	0.0266	-0.0568	-0.0215	0.0837	0.0727	-0.0073	-0.0565	-0.0455	0.0863	-0.0044	0.0365	-0.0235	0.011	-0.0006	-0.0162	-0.0278	-0.0246	0.0576	-0.0336
COc1cccc(OCCCN)c1-c1cc(Nc2cnc(C#N)cn2)n[nH]1 [Prexasertib] + CN(C)CCCOc1ccc(-c2ccc3ncc4c(c3c2)n(C2CCOCC2)c(=O)n4C)cn1 [AZD0156] (first compound max 1 µM, 7x7, partner max 1 µM)	-0.0335	-0.0321	0.0697	-0.0382	0.0079	-0.0001	-0.0066	0.0073	0.0398	-0.0439	-0.0357	-0.0053	-0.0144	0.0118	-0.0078	-0.0273	-0.0596	0.0109	-0.0185	0.0036
COc1cccc(OCCCN)c1-c1cc(Nc2cnc(C#N)cn2)n[nH]1 [Prexasertib] + C[C@@H]1COCCN1C2=NC(=NC(=C2)C3(CC3)[S@](=N)(=O)C)C4=C5C=CNC5=NC=C4 [AZD6738] (first compound max 1 µM, 7x7, partner max 10 µM)	0.0392	-0.0422	-0.0203	0.0013	0.005	-0.0053	0.0077	-0.002	-0.0165	-0.0351	-0.0108	-0.0064	-0.0418	-0.015	-0.033	0.0185	0.0016	0.0203	-0.0172	0.0584
COc1cccc(OCCCN)c1-c1cc(Nc2cnc(C#N)cn2)n[nH]1 [Prexasertib] + Cc1cc2ncnn2cc1Nc1ncc2c(n1)n(C1CCOCC1)c(=O)n2C [AZD7648] (first compound max 1 µM, 7x7, partner max 10 µM)	-0.0199	-0.064	0.0137	-0.0474	0.0133	-0.021	-0.0355	-0.012	0.0017	-0.0411	-0.0259	-0.0747	-0.0165	0.0161	-0.0512	-0.0016	-0.0311	-0.0247	0.0047	0.0031
COc1cccc(OCCCN)c1-c1cc(Nc2cnc(C#N)cn2)n[nH]1 [Prexasertib] + O=C(c1cc(Cc2n[nH]c(=O)c3ccccc23)ccc1F)N1CCN(C(=O)C2CC2)CC1 [Olaparib] (first compound max 1 µM, 7x7, partner max 10 µM)	-0.0527	-0.0274	-0.019	-0.0735	-0.0483	-0.121	-0.0532	-0.0088	-0.0372	-0.0381	-0.0824	-0.0767	-0.0418	0.0266	-0.0198	-0.17	-0.0399	-0.0104	-0.0225	-0.0194
CCc1c2c(nc3ccc(O)cc13)-c1cc3c(c(=O)n1C2)COC(=O)[C@]3(O)CC [SN-38] + CN(C)CCCOc1ccc(-c2ccc3ncc4c(c3c2)n(C2CCOCC2)c(=O)n4C)cn1 [AZD0156] (first compound max 0.3 µM, 7x7, partner max 1 µM)	0	0.0092	0.0208	-0.0156	0.0255	-0.0452	0.0636	-0.0318	0.0017	-0.0059	-0.0337	-0.006	-0.0558	0.0463	-0.029	-0.0235	-0.0031	0.0781	-0.0073	0.0685
Cn1cnc2c(F)c(Nc3ccc(Br)cc3Cl)c(C(=O)NOCCO)cc21 [Selumetinib] + C=CCn1c(=O)c2cnc(Nc3ccc(N4CCN(C)CC4)cc3)nc2n1-c1cccc(C(C)(C)O)n1 [AZD1775] (first compound max 10 µM, partner max 1 µM)	-0.0509	-0.0443	-0.0286	-0.0682	-0.0826	-0.0605	-0.0066	-0.046	0.0822	-0.0335	-0.0385	0.0366	-0.0744	0.0209	-0.0275	-0.0074	-0.0465	0.0324	-0.11	0.0229
